Reference: patent publication US9521847B2, “Synergistic weed control from applications of pyridine carboxylic acid herbicides and synthetic auxin herbicides and/or auxin transport inhibitors” (Dow AgroSciences LLC, priority 2014, dated 2016)
Where “and” joins values, the source holds several entries; their conditions need not be identical. Equal entries are not always repeated. Where two headings read alike, the source gives them in different places.

Tests used:
[1] = system: kochia (KCHSC, Kochia scoparia); assay: Greenhouse postemergence trial, % visual injury; type: in vivo; details: for % visual injury, Obs.: Table 60
Procedure: Following the protocol in Example 1, compound 1 and compound 2 were combined with 2,4 D EHE (EC) and applied to kochia (KCHSC, Kochia scoparia) and the phytotoxicity of the herbicidal compositions was measured.
Following the protocol in Example 1, compound 1 (EC) and Compound 2 (SC) were combined with diflufenzopyr and applied to kochia (Kochia scoparia, KCHSC) and the phytotoxicity of the herbicidal composition was measured.

[2] = system: large crabgrass (Digitaria sanguinalis, DIGSA); assay: Greenhouse postemergence trial, % visual injury; type: in vivo; details: Digitaria sanguinalis, post-emergence; DIGSA, 5 g ae/ha; read-out: % visual injury, Obs
[3] = system: Chinese kale (Brassica alboglabra, BRSAG); assay: Greenhouse postemergence trial, % visual injury; type: in vivo; details: for % visual injury, Obs: BRSAG, compound 1 (EC) 5 g ae/ha
[4] = system: sunflower (Helianthus annus, HELAN); assay: Greenhouse postemergence trial, % visual injury; type: in vivo; details: for % visual injury, Obs: HELAN
[5] = system: grain sorghum (Sorghum vulgare, SORVU); assay: Greenhouse postemergence trial, % visual injury; type: in vivo
[6] = system: spring rape (Brassica napus, BRSNN); assay: Greenhouse postemergence trial, % visual injury; details: for plant injury at 5 g/ha: Brassica napus, post-emergence
[7] = system: common lambsquarters (CHEAL, Chenopodium album L.); assay: Greenhouse postemergence trial, % visual injury; type: in vivo; details: for % visual injury, Obs: CHEAL
[8] = system: winter rape (BRSNW, Brassica napus); assay: Greenhouse postemergence trial, % visual injury; type: in vivo; details: for % visual injury, Obs: BRSNW
[9] = system: soybean (Glycine max, GIAMA); assay: Greenhouse postemergence trial, % visual injury; type: in vivo; details: GLXMA
[10] = system: wild buckwheat (Polygonum convolvulus, POLCO); assay: Greenhouse postemergence trial, % visual injury; type: in vivo; details: for % visual injury, Obs: POLCO
[11] = system: nutsedge (Cyperus esculentus, CYPES); assay: Greenhouse postemergence trial, % visual injury; type: in vivo
[12] = system: common chickweed (Stellaria media, STEME); assay: Greenhouse postemergence trial, % visual injury; type: in vivo; details: for % visual injury, Obs: STEME
[13] = system: Canadian thistle (CIRAR, Cirsium arvense); assay: Greenhouse postemergence trial, % visual injury; details: for % visual injury, Obs: CIRAR; for pest or weed control at 5 g/ha: Cirsium arvense, post-emergence;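 for all read-outs here: plants sprayed at second to third true leaf stage, injury scored visually 20-22 d later against solvent-blank sprayed controls, 0 meaning no injury and 100 complete kill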
[14] = system: common rice (ORYSA); details: in vivo
[15] = system: pigweed (AMARE, Amaranthus retroflexus); assay: Greenhouse postemergence trial, % visual injury; type: in vivo; details: for % visual injury, Obs: AMARE
[16] = system: velvetleaf (Abutilon theophrasti, ABUTH); assay: Greenhouse postemergence trial, % visual injury; type: in vivo
[17] = system: spring barley (HORVS); details: in vivo; for % visual injury (Obs): Hordeum vulgare (spring barley)
[18] = system: ivyleaf morningglory (Ipomoea hederacea, IPOHE); assay: Greenhouse postemergence trial, % visual injury
[19] = system: wild pansy (Viola tricolor, VIOTR); assay: Greenhouse postemergence trial, % visual injury; details: for % visual injury, Obs: VIOTR
[20] = system: wild mustard (Sinapis arvensis, SINAR); assay: Greenhouse postemergence trial, % visual injury; type: in vivo
[21] = system: Russian thistle (Salsola iberica, SASKR); assay: Greenhouse postemergence trial, % visual injury; type: in vivo
[22] = system: poinsettia (Euphorbia heterophylla, EPHHL); assay: Greenhouse postemergence trial, % visual injury
[23] = system: maize (ZEAMX); details: maize (Zea mays), in vivo
[24] = system: Indian hedge mustard (Sisymbrium orientale, SSYOR); assay: Greenhouse postemergence trial, % visual injury; type: in vivo
[25] = compound 1 (EC) 5 g ae/ha, Table 62
[26] = compound 1 (EC) 5 g ae/ha, Table 63
[27] = read-out: % visual injury (Obs)

Nc1c(F)c(-c2ccc3cc[nH]c3c2F)nc(C(=O)O)c1Cl [compound 1]
% visual injury Obs ([1]; 8.75 g ae/ha alone, 20-22 d): 43%
pest or weed control at 5 g/ha ([1]; Bassia scoparia, post-emergence, KCHSC, 5 g ae/ha, read-out: % visual injury, Obs): 65%
pest or weed control at 10 g/ha ([1]; Bassia scoparia, post-emergence, KCHSC, 10 g ae/ha, read-out: % visual injury, Obs): 60%
% visual injury, Obs. ([1]; KCHSC, compound 1 (EC) 8.75 g ae/ha): 78%
% visual injury, Obs. ([1]; KCHSC, compound 1 (EC) 17.5 g ae/ha): 80%
% visual injury (Obs) ([1]; compound 1 (EC) 5 g ae/ha): 65%
% visual injury (Obs) ([1]; compound 1 SC 5 g ae/ha): 75%
% visual injury (Obs) ([1]; compound 1 SC 10 g ae/ha): 100%
pest or weed control at 5 g/ha [2]: 0%
% visual injury Obs ([3]; 5 g ae/ha alone (compound 1 as EC), 20-22 d): 15%
% visual injury, Obs ([3]; Table 62): 15%
% visual injury, Obs ([3]; Table 63): 15%
% visual injury, Obs ([4]; 5 g ae/ha): 80%
% visual injury, Obs [4, 25]: 70%
% visual injury, Obs [4, 26]: 70%
% visual injury (Obs) ([4]; compound 1 (EC) 5 g ae/ha): 80%
% visual injury Obs ([5]; 5 g ae/ha alone, 20-22 d): 13%
% visual injury, Obs ([5]; SORVU, 10 g ae/ha): 50%
% visual injury (Obs) ([5]; compound 1 (EC) 5 g ae/ha): 30%
% visual injury, Obs ([6]; BRSNN, compound 1 (EC) 5 g ae/ha, Table 62): 50%
plant injury at 5 g/ha [6, 27]: 50%
plant injury at 5 g/ha ([6]; read-out: % visual injury Obs): 60%
plant injury at 5 g/ha ([6]; read-out: % visual injury, Obs): 50%
% visual injury, Obs ([7]; 5 g ae/ha): 90%
% visual injury, Obs ([7]; 10 g ae/ha): 100%
% visual injury (Obs) ([7]; compound 1 (EC) 5 g ae/ha): 80%
% visual injury, Obs ([8]; 5 g ae/ha): 40%
% visual injury, Obs ([8]; 10 g ae/ha): 45%
% visual injury, Obs [8, 25]: 30%
% visual injury, Obs [8, 26]: 50%
% visual injury (Obs) ([8]; compound 1 (EC) 5 g ae/ha): 40% and 70%
% visual injury (Obs) ([8]; compound 1 (EC) 10 g ae/ha): 100% and 80%
% visual injury (Obs) ([8]; compound 1 SC 5 g ae/ha): 30%
% visual injury (Obs) ([8]; compound 1 SC 10 g ae/ha): 60%
% visual injury, Obs ([9]; 5 g ae/ha): 95%
% visual injury, Obs ([9]; 10 g ae/ha): 100%
% visual injury, Obs ([10]; 10 g ae/ha): 30%
% visual injury, Obs [10, 25]: 65%
% visual injury, Obs [10, 26]: 65%
% visual injury (Obs) ([10]; compound 1 SC 10 g ae/ha): 30% and 40%
% visual injury, Obs ([11]; CYPES, 5 g ae/ha): 30%
pest or weed control at 5 g/ha ([11]; Cyperus, post-emergence, 5 g ae/ha alone, 20-22 d, read-out: % visual injury Obs): 25%
% visual injury (Obs) ([11]; compound 1 (EC) 5 g ae/ha): 30%
% visual injury, Obs ([12]; 5 g ae/ha): 60% and 70%
% visual injury, Obs ([12]; 10 g ae/ha): 70%
% visual injury (Obs) ([12]; compound 1 (EC) 5 g ae/ha): 60%
% visual injury, Obs ([13]; 5 g ae/ha): 10%
% visual injury, Obs [13, 26]: 10%
pest or weed control at 5 g/ha [13, 27]: 10%
pest or weed control at 5 g/ha ([13]; read-out: % visual injury Obs): 20%
% visual injury (Obs) ([13]; compound 1 (EC) 5 g ae/ha): 10%
% visual injury (Obs) [14]: 0%
% visual injury, Obs ([15]; 5 g ae/ha): 75%
% visual injury, Obs ([15]; 10 g ae/ha): 97%
% visual injury (Obs) ([15]; compound 1 (EC) 5 g ae/ha): 70%
% visual injury (Obs) ([15]; compound 1 (EC) 10 g ae/ha): 85%
% visual injury (Obs) ([15]; compound 1 SC 5 g ae/ha): 70%
% visual injury (Obs) ([15]; compound 1 SC 10 g ae/ha): 85%
pest or weed control at 5 g/ha ([16]; Abutilon theophrasti, post-emergence, ABUTH, 5 g ae/ha, read-out: % visual injury, Obs): 70%
pest or weed control at 10 g/ha ([16]; Abutilon theophrasti, post-emergence, ABUTH, 10 g ae/ha, read-out: % visual injury, Obs): 60%
pest or weed control at 5 g/ha ([16]; Abutilon theophrasti, post-emergence, ABUTH, compound 1 (EC) 5 g ae/ha, Table 62, read-out: % visual injury, Obs): 60%
pest or weed control at 5 g/ha ([16]; Abutilon theophrasti, post-emergence, ABUTH, compound 1 (EC) 5 g ae/ha, Table 63, read-out: % visual injury, Obs): 60%
% visual injury (Obs) ([16]; compound 1 (EC) 5 g ae/ha): 70%
% visual injury (Obs) [17]: 0%
% visual injury (Obs) ([17]; sc): 0%
% visual injury, Obs ([17]; spring barley (Hordeum vulgare)): 0%
pest or weed control at 5 g/ha ([18]; Ipomoea, post-emergence, read-out: % visual injury, Obs, IPOHE, 5 g ae/ha): 20%
pest or weed control at 10 g/ha ([18]; Ipomoea, post-emergence, read-out: % visual injury, Obs, IPOHE, 10 g ae/ha): 10%
% visual injury (Obs) ([18]; compound 1 (EC) 5 g ae/ha): 20%
% visual injury, Obs ([19]; 10 g ae/ha): 10%
% visual injury, Obs [19, 25]: 5%
% visual injury, Obs [19, 26]: 5%
pest or weed control at 5 g/ha ([19]; Viola tricolor, post-emergence, read-out: % visual injury Obs): 25%
% visual injury (Obs) ([19]; compound 1 (EC) 5 g ae/ha): 10%
% visual injury (Obs) ([19]; compound 1 SC 2.5 g ae/ha): 13%
% visual injury (Obs) ([19]; compound 1 SC 5 g ae/ha): 23%
% visual injury (Obs) ([20]; compound 1 (EC) 5 g ae/ha): 100% and 95%
% visual injury (Obs) ([20]; compound 1 (EC) 10 g ae/ha): 100%
% visual injury (Obs) ([20]; compound 1 SC 5 g ae/ha): 100%
% visual injury (Obs) ([20]; compound 1 SC 10 g ae/ha): 80%
% visual injury (Obs) ([21]; compound 1 (EC) 10 g ae/ha): 65% and 60%
% visual injury (Obs) ([21]; compound 1 SC 5 g ae/ha): 65%
% visual injury (Obs) ([21]; compound 1 SC 10 g ae/ha): 80%
pest or weed control at 5 g/ha ([22]; Euphorbia heterophylla, post-emergence, read-out: % visual injury, Obs, EPHHL, 5 g ae/ha): 95%
pest or weed control at 10 g/ha ([22]; Euphorbia heterophylla, post-emergence, read-out: % visual injury, Obs, EPHHL, 10 g ae/ha): 97%
% visual injury (Obs) ([22]; compound 1 (EC) 5 g ae/ha): 95%
% visual injury (Obs) [23]: 5%
% visual injury (Obs) ([24]; compound 1 SC 2.5 g ae/ha): 13%
% visual injury (Obs) ([24]; compound 1 SC 5 g ae/ha): 20%
